Data published in PubChem BioAssay (NCI).
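GI50 marks 50% less growth. TGI: concentration producing complete growth inhibition.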

How the values were obtained:
Assay in all cases: inhibition of tumour cell growth, NCI panel, 384-well format
786-0 renal = system: 786-0 renal
A498 renal = system: A498 renal
A549 NSCLC = system: A549 NSCLC
ACHN renal = system: ACHN renal
BT-549 breast = system: BT-549 breast
CAKI-1 renal = system: CAKI-1 renal
COLO 205 colon = system: COLO 205 colon
DU-145 prostate = system: DU-145 prostate
EKVX NSCLC = system: EKVX NSCLC
HCC-2998 colon = system: HCC-2998 colon
HCT-116 colon = system: HCT-116 colon
HCT-15 colon = system: HCT-15 colon
HOP-62 NSCLC = system: HOP-62 NSCLC
HOP-92 NSCLC = system: HOP-92 NSCLC
HS 578T breast = system: HS 578T breast
HT29 colon = system: HT29 colon
IGROV1 ovarian = system: IGROV1 ovarian
KM12 colon = system: KM12 colon
LOX IMVI melanoma = system: LOX IMVI melanoma
M14 melanoma = system: M14 melanoma
MALME-3M melanoma = system: MALME-3M melanoma
MCF7 breast = system: MCF7 breast
MDA-MB-231 breast = system: MDA-MB-231 breast
MDA-MB-435 melanoma = system: MDA-MB-435 melanoma
MDA-MB-468 breast = system: MDA-MB-468 breast
MOLT-4 leukemia = system: MOLT-4 leukemia
NCI-H226 lung = system: NCI-H226 lung
NCI-H23 lung = system: NCI-H23 lung
NCI-H322M lung = system: NCI-H322M lung
NCI-H460 NSCLC = system: NCI-H460 NSCLC
NCI-H522 lung = system: NCI-H522 lung
NCI/ADR-RES ovarian = system: NCI/ADR-RES ovarian
OVCAR-3 ovarian = system: OVCAR-3 ovarian
OVCAR-4 ovarian = system: OVCAR-4 ovarian
OVCAR-5 ovarian = system: OVCAR-5 ovarian
OVCAR-8 ovarian = system: OVCAR-8 ovarian
PC-3 prostate = system: PC-3 prostate
RPMI-8226 leukemia = system: RPMI-8226 leukemia
RXF 393 renal = system: RXF 393 renal
SF-268 CNS = system: SF-268 CNS
SF-295 CNS = system: SF-295 CNS
SF-539 CNS = system: SF-539 CNS
SK-MEL-28 melanoma = system: SK-MEL-28 melanoma
SK-MEL-5 melanoma = system: SK-MEL-5 melanoma
SK-OV-3 ovarian = system: SK-OV-3 ovarian
SN12C renal = system: SN12C renal
SNB-19 CNS = system: SNB-19 CNS
SNB-75 CNS = system: SNB-75 CNS
SR leukemia = system: SR leukemia
SW-620 colon = system: SW-620 colon
T-47D breast = system: T-47D breast
TK-10 renal = system: TK-10 renal
U251 glioblastoma = system: U251 glioblastoma
UACC-257 melanoma = system: UACC-257 melanoma
UACC-62 melanoma = system: UACC-62 melanoma
UO-31 renal = system: UO-31 renal

Cn1cnc2c(F)c(Nc3ccc(Br)cc3Cl)c(C(=O)NOCCO)cc21
GI50 (786-0 renal): 12.2 µM
TGI (786-0 renal): > 100 µM
GI50 (A498 renal): 3.46 µM
TGI (A498 renal): 35.4 µM
GI50 (A549 NSCLC): 0.58 µM
TGI (A549 NSCLC): > 100 µM
GI50 (ACHN renal): 6.87 µM
TGI (ACHN renal): > 100 µM
GI50 (BT-549 breast): 6.05 µM
TGI (BT-549 breast): 52.1 µM
GI50 (CAKI-1 renal): 1.73 µM
TGI (CAKI-1 renal): > 100 µM
GI50 (COLO 205 colon): 0.02 µM
TGI (COLO 205 colon): 0.122 µM
GI50 (DU-145 prostate): 42.4 µM
TGI (DU-145 prostate): > 100 µM
GI50 (EKVX NSCLC): 18.6 µM
TGI (EKVX NSCLC): > 100 µM
GI50 (HCC-2998 colon): 0.0284 µM
TGI (HCC-2998 colon): 1.3 µM
GI50 (HCT-116 colon): 0.553 µM
TGI (HCT-116 colon): 12.2 µM
GI50 (HCT-15 colon): 21.5 µM
TGI (HCT-15 colon): > 100 µM
GI50 (HOP-62 NSCLC): 1.22 µM
TGI (HOP-62 NSCLC): > 100 µM
GI50 (HOP-92 NSCLC): 2.08 µM
TGI (HOP-92 NSCLC): 14.5 µM
GI50 (HS 578T breast): 17.5 µM
TGI (HS 578T breast): > 100 µM
GI50 (HT29 colon): 0.0948 µM
TGI (HT29 colon): > 100 µM
GI50 (IGROV1 ovarian): 0.914 µM
TGI (IGROV1 ovarian): 47 µM
GI50 (KM12 colon): 0.481 µM
TGI (KM12 colon): > 100 µM
GI50 (LOX IMVI melanoma): 0.425 µM
TGI (LOX IMVI melanoma): 13.5 µM
GI50 (M14 melanoma): 0.0211 µM
TGI (M14 melanoma): 0.144 µM
GI50 (MALME-3M melanoma): 0.0114 µM
TGI (MALME-3M melanoma): 0.0363 µM
GI50 (MCF7 breast): > 100 µM
TGI (MCF7 breast): > 100 µM
GI50 (MDA-MB-231 breast): 1.06 µM
TGI (MDA-MB-231 breast): 17.3 µM
GI50 (MDA-MB-435 melanoma): 0.266 µM
TGI (MDA-MB-435 melanoma): > 100 µM
GI50 (MDA-MB-468 breast): 55.3 µM
TGI (MDA-MB-468 breast): > 100 µM
GI50 (MOLT-4 leukemia): 49 µM
TGI (MOLT-4 leukemia): > 100 µM
GI50 (NCI-H226 lung): 0.267 µM
TGI (NCI-H226 lung): 38.7 µM
GI50 (NCI-H23 lung): 0.26 µM
TGI (NCI-H23 lung): 9.91 µM
GI50 (NCI-H322M lung): 0.363 µM
TGI (NCI-H322M lung): > 100 µM
GI50 (NCI-H460 NSCLC): > 100 µM
TGI (NCI-H460 NSCLC): > 100 µM
GI50 (NCI-H522 lung): 42.8 µM
TGI (NCI-H522 lung): > 100 µM
GI50 (NCI/ADR-RES ovarian): > 100 µM
TGI (NCI/ADR-RES ovarian): > 100 µM
GI50 (OVCAR-3 ovarian): 44.9 µM
TGI (OVCAR-3 ovarian): > 100 µM
GI50 (OVCAR-4 ovarian): 14.4 µM
TGI (OVCAR-4 ovarian): > 100 µM
GI50 (OVCAR-5 ovarian): 0.205 µM
TGI (OVCAR-5 ovarian): > 100 µM
GI50 (OVCAR-8 ovarian): 67.4 µM
TGI (OVCAR-8 ovarian): > 100 µM
GI50 (PC-3 prostate): > 100 µM
TGI (PC-3 prostate): > 100 µM
GI50 (RPMI-8226 leukemia): 21.1 µM
TGI (RPMI-8226 leukemia): > 100 µM
GI50 (RXF 393 renal): 0.101 µM
TGI (RXF 393 renal): 12.3 µM
GI50 (SF-268 CNS): > 100 µM
TGI (SF-268 CNS): > 100 µM
GI50 (SF-295 CNS): > 100 µM
TGI (SF-295 CNS): > 100 µM
GI50 (SF-539 CNS): 12.2 µM
TGI (SF-539 CNS): 56.5 µM
GI50 (SK-MEL-28 melanoma): 0.0217 µM
TGI (SK-MEL-28 melanoma): 0.147 µM
GI50 (SK-MEL-5 melanoma): 0.0449 µM
TGI (SK-MEL-5 melanoma): 0.616 µM
GI50 (SK-OV-3 ovarian): > 100 µM
TGI (SK-OV-3 ovarian): > 100 µM
GI50 (SN12C renal): 7.8 µM
TGI (SN12C renal): > 100 µM
GI50 (SNB-19 CNS): 51.5 µM
TGI (SNB-19 CNS): > 100 µM
GI50 (SNB-75 CNS): 3.12 µM
TGI (SNB-75 CNS): 85.9 µM
GI50 (SR leukemia): 47 µM
TGI (SR leukemia): > 100 µM
GI50 (SW-620 colon): 0.039 µM
TGI (SW-620 colon): > 100 µM
GI50 (T-47D breast): 84.8 µM
TGI (T-47D breast): > 100 µM
GI50 (TK-10 renal): 42.4 µM
TGI (TK-10 renal): > 100 µM
GI50 (U251 glioblastoma): 19.5 µM
TGI (U251 glioblastoma): > 100 µM
GI50 (UACC-257 melanoma): 0.0456 µM
TGI (UACC-257 melanoma): 0.278 µM
GI50 (UACC-62 melanoma): 0.0318 µM
TGI (UACC-62 melanoma): 0.311 µM
GI50 (UO-31 renal): 3.21 µM
TGI (UO-31 renal): 21.2 µM
